{
  "source": "patent US20240384321A1",
  "about": "“Microfluidic chip and use thereof for continuous monitoring of bacterium intended for motion, growth and morphology detection” (National Health Research Institutes, priority 2023, published 2024)",
  "key": {"E. coli GFP [1]": {"test_system": "E. coli GFP", "test": "Antibiotic susceptibility testing in the microfluidic chip (fluorescence, MIC determination)", "type": "cell-based, Escherichia coli (ATCC 25922 GFP)", "method": "Escherichia coli (E. coli) (ATCC 25922 GFP™) was chosen as a model bacterium. Ampicillin and gentamicin were chosen as model antibiotic drugs. The operational parameters were optimized to isolate 0 or 1 bacterium in each chamber. For the determination of minimum inhibitory concentration (MIC), fluorescence intensity of the sample was measured via inverted fluorescence microscope at 2 hours intervals, during 6 hours of incubation in a temperature-controlled chamber at 37° C. The time-dependent morpho-structural variabilities of bacterium were characterized by a software. […] 0.25 μg/ml GM inhibits bulky E. coli GFP growth on agar plates and microfluidic chip. On the contrary, 0.1 μg/ml GM inhibits growth of ˜90% E. coli GFP in the microfluidic chip, and resistant subpopulation continue growing after 4 h. The present invention shed light on breakthrough development in bacterial resistance research and rapid drug testing applications. […]\nStep 3, The morpho-structural changes and Dynamic phenotypic analysis of bacterium were evaluated by microscopy methods. […] In this and the following examples, E. coli is monitored during the first 6 hours and after 21 hours of incubation at 37° C. inside a temperature-controlled chamber placed on the microscope-stage. […]"}, "E. coli GFP [2]": {"test_system": "E. coli GFP", "test": "Antibiotic susceptibility of bulky bacteria on agar plates (E-test)", "type": "cell-based, Escherichia coli (ATCC 25922 GFP)", "method": "Escherichia coli (E. coli) (ATCC 25922 GFP™) was chosen as a model bacterium. Ampicillin and gentamicin were chosen as model antibiotic drugs. The operational parameters were optimized to isolate 0 or 1 bacterium in each chamber. For the determination of minimum inhibitory concentration (MIC), fluorescence intensity of the sample was measured via inverted fluorescence microscope at 2 hours intervals, during 6 hours of incubation in a temperature-controlled chamber at 37° C. The time-dependent morpho-structural variabilities of bacterium were characterized by a software. […] 0.25 μg/ml GM inhibits bulky E. coli GFP growth on agar plates and microfluidic chip. On the contrary, 0.1 μg/ml GM inhibits growth of ˜90% E. coli GFP in the microfluidic chip, and resistant subpopulation continue growing after 4 h. The present invention shed light on breakthrough development in bacterial resistance research and rapid drug testing applications.\nThe multi-parametric motion-analysis incorporating line length, elongation ratio, circularity, line speed, path speed and intensity are found useful for the identification of resistance and susceptibility of E. coli in 4 hours. […] However, resistant subpopulation continues growing after 4 h."}},
  "data": [
    {"substance": "gentamicin [GM]", "values": [
      {"measurement": "share of E. coli GFP whose growth is inhibited", "setting": "E. coli GFP [1]; 0.1 μg/ml GM, resistant subpopulation continues growing after 4 h", "value": "~90", "unit": "%"},
      {"measurement": "concentration that inhibits bulky E. coli GFP growth (MIC)", "setting": "E. coli GFP [1]; bulky bacteria, 37° C., 6 hours incubation", "value": 0.25, "unit": "µg/mL"},
      {"measurement": "concentration that inhibits bulky E. coli GFP growth (MIC)", "setting": "E. coli GFP [2]", "value": 0.25, "unit": "µg/mL"}
    ]}
  ]
}
